Experimental data: ChEMBL document CHEMBL1201862, “PubChem BioAssay data set” (2004)
Activity calls are given as the source filed them.

How the values were obtained:
[1] = Vero E6 cell cytotoxicity, dose response, cytotoxicity control for non-replicating M. tuberculosis project, secondary assay (AID 492998); format: functional, VeroE6; details: Vero C1008
[2] = cytotoxicity toward NIH3T3 fibroblasts, dose response, counter-screen, cell-based, ATP luminescence, mouse fibroblasts (AID 2010); format: functional;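 also: cells exposed to compound for about 90 hours before reading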
Streptococcus = assay: Group A Streptococcus viability loss, dose response, counter-screen for streptokinase expression inhibitor project, luminescence, BacTiterGlo (AID 1915); format: functional, organism-based;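 also: potency for reduction of bacterial viability or growth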
[3] = growth suppression of PTEN-null colon cells, dose response, cell-based, HCT116 PTEN knockout (AID 1047); format: functional;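 also: HCT116 colon tumor cells with PTEN knocked out; cells exposed to compound for 60 hours before readout; potency for loss of cell viability measured by luminescence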
[4] = NIH-3T3 fibroblast cytotoxicity, dose response, cytotoxicity control, cell-based, fluorescence, Alamar Blue, secondary assay (AID 2327); format: functional;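 also: NIH-3T3 mouse fibroblasts cultured with fluconazole at 8 µg/mL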
cells = format: functional
[5] = molecular target: T1, Heat shock factor protein 1 (Mus musculus, UniProt P38532); assay: inhibition of MG132-induced HSE-luciferase signal, confirmation, cell-based, NIH3T3, luminescence, dose retest (AID 2382); format: functional;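 also: NIH3T3 fibroblasts with HSF1-driven luciferase reporter stressed by proteasome inhibitor MG132; luminescence from HSF1-driven luciferase expression after 8 hours of MG132 stress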
T1 sequence (P38532 whole entry): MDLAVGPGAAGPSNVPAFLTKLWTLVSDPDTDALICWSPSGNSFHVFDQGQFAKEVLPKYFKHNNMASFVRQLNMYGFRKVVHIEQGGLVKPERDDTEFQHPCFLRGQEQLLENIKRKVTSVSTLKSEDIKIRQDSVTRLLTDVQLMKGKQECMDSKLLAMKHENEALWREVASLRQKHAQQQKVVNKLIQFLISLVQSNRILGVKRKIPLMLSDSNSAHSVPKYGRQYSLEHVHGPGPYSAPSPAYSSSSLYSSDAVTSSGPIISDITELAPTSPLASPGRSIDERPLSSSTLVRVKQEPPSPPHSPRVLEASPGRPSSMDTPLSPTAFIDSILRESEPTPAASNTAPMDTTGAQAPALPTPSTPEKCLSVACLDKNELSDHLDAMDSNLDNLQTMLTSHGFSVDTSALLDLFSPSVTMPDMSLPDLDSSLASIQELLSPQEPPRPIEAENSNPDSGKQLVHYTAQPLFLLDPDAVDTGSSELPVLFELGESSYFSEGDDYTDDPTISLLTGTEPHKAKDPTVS

[6] = molecular target: C-C chemokine receptor type 6 (Homo sapiens, UniProt P51684); assay: CCR6 receptor antagonists, dose response, cell-based, luminescent beta-arrestin readout (AID 504728); format: functional
Sequence of C-C chemokine receptor type 6 (P51684 whole entry): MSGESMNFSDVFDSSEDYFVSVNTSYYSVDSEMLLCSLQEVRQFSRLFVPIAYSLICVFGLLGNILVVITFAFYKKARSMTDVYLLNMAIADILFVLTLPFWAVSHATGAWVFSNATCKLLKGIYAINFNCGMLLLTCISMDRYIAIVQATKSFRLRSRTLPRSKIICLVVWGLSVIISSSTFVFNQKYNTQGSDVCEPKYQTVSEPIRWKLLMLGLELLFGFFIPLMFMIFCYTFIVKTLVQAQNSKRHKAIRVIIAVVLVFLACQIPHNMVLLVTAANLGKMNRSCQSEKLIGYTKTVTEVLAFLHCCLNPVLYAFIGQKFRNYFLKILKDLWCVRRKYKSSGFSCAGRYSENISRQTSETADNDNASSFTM

[7] = inhibitors of intracellular T. cruzi replication, confirmation, NIH3T3 host cells, beta-gal luminescence (AID 2044); format: functional, cell-based;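 also: intracellular parasites grown in NIH/3T3 mouse fibroblasts as host cells; luminescent beta-galactosidase reporter signal from transgenic T. cruzi replicating inside host cells; inhibitors lower the luminescence signal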
[8] = C. albicans growth with fluconazole, confirmation, fluorescence, retest (AID 2467); format: functional, cell-based
Protein RecA = molecular target: T2, Protein RecA (Mycobacterium tuberculosis, UniProt P9WHJ3); assay: Fluorescence Cell-Free Homogeneous Dose Retest to Identify Inhibitors of RecA-Intein Splicing Activity. [Related pubchem assays (depositor defined):AID2097, AID2223, AID489010, AID492950]; format: functional
T2 sequence (P9WHJ3 whole entry): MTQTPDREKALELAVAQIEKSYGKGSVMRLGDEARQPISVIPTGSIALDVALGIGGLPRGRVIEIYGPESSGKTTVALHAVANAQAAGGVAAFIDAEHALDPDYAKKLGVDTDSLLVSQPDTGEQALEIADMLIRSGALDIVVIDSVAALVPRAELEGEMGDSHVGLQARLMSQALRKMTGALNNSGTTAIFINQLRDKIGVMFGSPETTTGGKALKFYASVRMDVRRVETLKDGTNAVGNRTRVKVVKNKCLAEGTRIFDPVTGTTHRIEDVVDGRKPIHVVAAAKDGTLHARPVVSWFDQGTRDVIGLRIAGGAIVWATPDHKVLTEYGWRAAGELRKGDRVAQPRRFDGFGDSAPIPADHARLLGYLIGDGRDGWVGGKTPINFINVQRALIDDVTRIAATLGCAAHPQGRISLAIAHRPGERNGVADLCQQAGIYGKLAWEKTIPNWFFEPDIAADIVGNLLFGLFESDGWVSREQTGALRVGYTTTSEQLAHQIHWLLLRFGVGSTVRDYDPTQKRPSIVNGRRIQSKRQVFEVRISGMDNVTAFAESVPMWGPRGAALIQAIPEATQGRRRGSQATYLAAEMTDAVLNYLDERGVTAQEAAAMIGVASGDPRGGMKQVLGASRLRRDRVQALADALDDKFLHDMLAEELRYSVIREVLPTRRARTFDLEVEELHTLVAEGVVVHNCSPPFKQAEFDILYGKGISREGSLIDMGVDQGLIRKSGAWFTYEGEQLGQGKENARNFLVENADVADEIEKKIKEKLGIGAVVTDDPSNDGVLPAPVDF

[9] = molecular target: T3, Replicative DNA helicase DnaB (Mycobacterium tuberculosis, UniProt P9WMR3); assay: DnaB intein splicing inhibitors, dose response, biochemical, cell-free fluorescence (AID 449749); format: functional
T3 sequence (P9WMR3 whole entry): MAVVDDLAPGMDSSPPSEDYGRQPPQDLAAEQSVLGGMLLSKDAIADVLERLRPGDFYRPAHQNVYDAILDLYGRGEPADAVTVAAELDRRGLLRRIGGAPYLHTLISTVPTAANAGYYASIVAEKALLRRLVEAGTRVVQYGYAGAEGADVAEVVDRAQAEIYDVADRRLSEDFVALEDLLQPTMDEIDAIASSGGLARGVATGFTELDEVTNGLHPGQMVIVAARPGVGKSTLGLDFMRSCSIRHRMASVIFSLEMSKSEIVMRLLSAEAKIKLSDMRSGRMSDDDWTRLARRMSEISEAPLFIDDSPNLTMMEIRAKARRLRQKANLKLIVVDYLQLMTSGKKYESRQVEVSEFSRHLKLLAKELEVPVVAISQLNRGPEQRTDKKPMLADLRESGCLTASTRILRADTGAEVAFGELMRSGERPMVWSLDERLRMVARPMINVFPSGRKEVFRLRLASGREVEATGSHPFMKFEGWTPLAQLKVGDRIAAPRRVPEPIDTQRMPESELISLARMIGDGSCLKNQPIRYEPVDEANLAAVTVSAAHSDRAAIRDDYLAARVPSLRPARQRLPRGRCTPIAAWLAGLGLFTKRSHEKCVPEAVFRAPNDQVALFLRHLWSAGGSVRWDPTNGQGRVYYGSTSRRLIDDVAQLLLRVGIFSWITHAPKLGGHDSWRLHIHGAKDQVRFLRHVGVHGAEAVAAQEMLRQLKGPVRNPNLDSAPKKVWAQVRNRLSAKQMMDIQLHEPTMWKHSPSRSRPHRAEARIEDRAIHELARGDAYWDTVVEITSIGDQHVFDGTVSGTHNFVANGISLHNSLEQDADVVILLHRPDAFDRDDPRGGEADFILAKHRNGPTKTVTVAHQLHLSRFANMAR

Nonstructural protein 1 = Nonstructural protein 1 (Influenza A virus, UniProt Q194T2); format: functional, Influenza A virus (A/California/07/2009(H1N1))
Sequence of Nonstructural protein 1 (Q194T2 whole entry): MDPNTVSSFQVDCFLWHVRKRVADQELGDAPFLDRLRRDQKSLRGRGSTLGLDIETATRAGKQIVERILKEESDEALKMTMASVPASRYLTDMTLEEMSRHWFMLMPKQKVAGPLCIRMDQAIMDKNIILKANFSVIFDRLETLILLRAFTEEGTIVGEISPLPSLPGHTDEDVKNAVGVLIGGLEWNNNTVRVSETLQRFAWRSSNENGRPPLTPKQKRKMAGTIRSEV

Beta-galactosidase = Beta-galactosidase (Escherichia coli, UniProt Q8VNN2); assay: beta-galactosidase enzyme inhibitors and activators, dose response, artefact control for CCR6 antagonist project, biochemical, E. coli enzyme, set 3 (AID 504712); format: functional
Sequence of Beta-galactosidase (Q8VNN2 whole entry): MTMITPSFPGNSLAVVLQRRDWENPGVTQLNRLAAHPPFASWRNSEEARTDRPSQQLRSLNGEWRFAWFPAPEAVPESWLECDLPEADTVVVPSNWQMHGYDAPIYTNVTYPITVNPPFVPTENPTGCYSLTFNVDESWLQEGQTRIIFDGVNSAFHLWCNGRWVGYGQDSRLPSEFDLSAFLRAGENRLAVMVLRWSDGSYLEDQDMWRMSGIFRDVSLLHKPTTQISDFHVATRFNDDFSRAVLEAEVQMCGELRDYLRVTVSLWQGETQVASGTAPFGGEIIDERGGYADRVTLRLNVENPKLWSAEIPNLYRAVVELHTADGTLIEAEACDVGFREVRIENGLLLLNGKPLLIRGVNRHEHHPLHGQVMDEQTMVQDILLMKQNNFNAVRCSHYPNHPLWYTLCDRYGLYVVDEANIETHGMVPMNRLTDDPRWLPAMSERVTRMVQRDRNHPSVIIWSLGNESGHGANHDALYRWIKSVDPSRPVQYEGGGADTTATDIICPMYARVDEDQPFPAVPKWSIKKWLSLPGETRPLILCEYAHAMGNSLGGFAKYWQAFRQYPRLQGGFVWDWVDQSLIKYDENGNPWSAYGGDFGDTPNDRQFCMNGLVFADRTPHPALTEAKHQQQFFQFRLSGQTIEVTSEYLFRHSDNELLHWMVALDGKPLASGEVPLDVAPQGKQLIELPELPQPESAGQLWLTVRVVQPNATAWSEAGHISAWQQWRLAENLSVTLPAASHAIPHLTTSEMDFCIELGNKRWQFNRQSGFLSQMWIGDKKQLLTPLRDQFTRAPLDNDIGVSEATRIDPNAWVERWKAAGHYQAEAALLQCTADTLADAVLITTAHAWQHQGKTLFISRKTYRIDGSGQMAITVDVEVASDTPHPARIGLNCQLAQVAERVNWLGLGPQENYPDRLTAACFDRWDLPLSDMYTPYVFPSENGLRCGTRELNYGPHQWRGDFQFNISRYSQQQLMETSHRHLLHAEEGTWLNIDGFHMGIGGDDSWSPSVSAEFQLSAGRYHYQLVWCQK

[10] = growth suppression of beta-catenin-knockout colon cells, dose response, cell-based, HCT116, human colon tumor (AID 1045); format: functional;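 also: HCT116 colon tumor cells with beta catenin knocked out; cells exposed to compound for 60 hours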

O=C1C(Nc2ccccc2)=C/C(=N/S(=O)(=O)c2cccs2)c2ccccc21
active: CC50 [1] 7.43 µM | EC50 [2] 1.29 µM | EC50 (Streptococcus) 4.21 µM | EC50 [3] 4.13 µM | IC50 (cells) 14.2 µM | EC50 [5] 1.09 µM | EC50 [7] 1.14 µM | EC50 [8] 1.35 µM | EC50 (Protein RecA) 0.143 µM | AC50 [9] 0.187 µM | IC50 (Nonstructural protein 1) 9.04 µM | EC50 [10] 4.63 µM
inconclusive: EC50 [4] 2.66 µM
inactive: IC50 [6] 34.8 µM | IC50 (Beta-galactosidase) > 66.6 µM
